Values joined by “and” are separate entries in the source; they are usually repeats but may differ in a detail not shown here. Identical values can stand only once. Like-named read-outs stand apart in the source and are kept apart here.
Experiments:
[1] = target: T1, CDK8/Cyclin C (Homo sapiens, UniProt P49336); test: 33PanQinase radiometric kinase assay, CDK8/Cyclin C; type: biochemical; details: read-out: percent inhibition of CDK8/Cyclin C
T1 construct: purchased ProQinase; host or cells: Sf9 insect cells or E. coli
Protocol: A radiometric protein kinase assay (33PanQinase Activity Assay) was used for measuring the kinase activity of the 320 protein kinases. All kinase assays were performed in 96-well FlashPlates™ from Perkin Elmer (Boston, Mass., USA) in a 50 μl reaction volume. The reaction cocktail was pipetted in 4 steps in the following order: • 1. 10 μl of non-radioactive ATP solution (in H2O) • 2. 25 μl of assay buffer/[γ-33P]-ATP mixture • 3. 5 μl of test sample in 10% DMSO • 4. 10 μl of enzyme/substrate mixture
All PKC assays (except the PKC-mu and the PKC-nu assay) additionally contained 1 mM CaCl2, 4 mM EDTA, 5 μg/ml phosphatidylserine and 1 μg/ml 1,2-dioleyl-glycerol.
The CAMKID, CAMK2A, CAMK2B, CAMK2D, CAMK4, CAMKK1, CAMKK2, DAPK2, EEF2K, MYLK, MYLK2 and MYLK3 assays additionally contained 1 μg/ml Calmodulin and 0.5 mM CaCl2). The PRKG1 and PRKG2 assays additionally contained 1 μM cGMP. The DNA-PK assay additionally contained 2.5 μg/ml DNA. The protein kinase reaction cocktails were incubated at 30° C. for 60 minutes. The reaction was stopped with 50 μl of 2% (v/v) H3PO4, plates were aspirated and washed two times with 200 μl 0.9% (w/v) NaCl. Incorporation of 33Pi (counting of “cpm”) was determined with a microplate scintillation counter (Microbeta, Wallac). All protein kinase assays were performed with a BeckmanCoulter Biomek 2000/SL robotic system.
All protein kinases provided by ProQinase were expressed in Sf9 insect cells or in E. coli as recombinant GST-fusion proteins or His-tagged proteins, either as full-length or enzymatically active fragments. All kinases were produced from human cDNAs and purified by either GSHaffinity chromatography or immobilized metal. Affinity tags were removed from a number of kinases during purification. The purity of the protein kinases was examined by SDSPAGE/Coomassie staining, the identity was checked by mass spectroscopy.
For each kinase, the median value of the cpm of three wells was defined as “low control” (n=3). This value reflects unspecific binding of radioactivity to the plate in the absence of a protein kinase but in the presence of the substrate. Additionally, for each kinase the median value of the cpm of three other wells was taken as the “high control”, i.e. full activity in the absence of any inhibitor (n=3). The difference between high and low control of each enzyme was taken as 100% activity. As part of the data evaluation the low control of each kinase was subtracted from the high control value as well as from their corresponding “compounds values”. The residual activity (in %) for each compounds well was calculated by using the following formula:
Res. Activity (%)=100×[(signal of compounds−low control)/(high control−low control)]

[2] = target: T2, CDK8 (Homo sapiens, UniProt P49336); test: CDK8 IC50 determination (Example 9); type: biochemical
[3] = target: T2, CDK8; test: Western blot study of CDK8 inhibition; type: cell-based; details: decreased staining results from inhibition of the target
Protocol: CDK8 inhibition in cells as measured by inhibition of Interferon-gamma (IFNγ)-stimulated STAT1-S727 phosphorylation. The compounds were provided as 200 μl of 1×10^−03 M/100% stock solutions in vials. The vials arrived in good condition and 2×100 μl each of the stock solutions were transferred into wells A2 to H2 of a 96 well “master plate” (barcoded “11273-UNH-01”), according to Table 12.
The dose response curves presented above were corroborated with western blot studies.

[4] = tested on: MV4; 11; test: Half-maximal growth inhibition (GI50), MV4; 11; type: cell-based; details: Homo sapiens, 240 h, AML, M5, MLL-AF4, read-out: GI50 (nM), day 10
Protocol: (§1) Compounds A, B, C, D, and F were tested against various cell lines to probe their broad utility against cancer. Cortistatin A (CA) was also tested against the cell lines in a head to head fashion.

[5] = tested on: HEL; test: Half-maximal growth inhibition (GI50), HEL; type: cell-based; details: Homo sapiens, 240 h, AML, erythroleukemia, JAK2V617F, read-out: GI50 (nM), day 10
Protocol: as §1

[6] = tested on: SET-2 AML cell line (FLAG-CDK8 WT vs FLAG-CDK8-W105M); test: CDK8 W105M versus wild type SET-2 cell competition (flow cytometry); type: cell-based; details: after 3 days and 7 days of treatment
Protocol: Compounds A, B, C, and D inhibit SET-2 AML cell line proliferation by inhibiting CDK8. ZsGreen (Clontech) and FLAG-CDK8 WT (wild type) or mCherry (Clontech) and FLAG-CDK8-W105M were expressed in SET 2 cells. The cells were mixed, the ratio of red to green fluorescence was determined by flow cytometry, and the cells were treated with the indicated compounds. After 3 days and 7 days of treatment, the ratio of red to green fluorescent cells was determined.

[7] = tested on: Human AML cell line MV4;11; test: MV4;11 disseminated leukemia model (bioluminescence); type: in vivo, NSG mice; details: for Fold increase in leukemia burden 15 days after 1st dose / in vivo anti-leukemic efficacy (bioluminescence, words): NSG mice; for in vivo anti-leukemic efficacy (bioluminescence, words): compounds dosed at their highest tolerable dose; for Efficacy Rank Day 15: each compound at its own dose/schedule, data from 3 separate studies
Protocol: The in vivo anti-leukemic activity of Compounds A, B, C, D, and F was tested at the indicated doses and treatment schedules. The doses were chosen based on the compounds tolerability profile (i.e. CA was dosed at 0.16 mg/kg because higher doses caused weight loss or other tolerability issues outlined in Example 6). Human AML cell line MV4;11 expressing mCherry and luciferase were injected into NSG mice. Upon measurement of leukemia cell engraftment, treatment was initiated. Body weight and bioluminescence were measured. It has previously been shown (Shair, Nature 2015) that bioluminescence corresponds to leukemia burden. […] Moreover there was no appreciable advantage between IV or PO dosing observed.

[8] = tested on: sodium channel; test: Panlab sodium channel assay; type: binding; details: 10 μM
Protocol: (§2) Compounds A, B, C, and D were tested in Panlab assays to evaluate potential off-target activity using standard assay kits. Methods employed in these studies have been adapted from the scientific literature to maximize reliability and reproducibility. Reference standards were run as an integral part of each assay to ensure the validity of the results obtained.
(§3) Compound B was tested in a subset of 30 Panlab assays that included the hits from screening Compound F in addition to the Panlab hERG and sodium channel assay. This allows direct comparison of Compound B to Compound F in terms of off-target profile.

[9] = target: hERG (Homo sapiens, UniProt Q12809); test: Panlab hERG assay; type: binding; parameters: Eurofins Panlabs
Protocol: as §2, §3

[10] = read-out: IC50 (nM) against CDK8, average
[11] = tested in duplicate, read-out: IC50 against CDK8, single determinations

Sequence of hERG (Q12809 whole entry): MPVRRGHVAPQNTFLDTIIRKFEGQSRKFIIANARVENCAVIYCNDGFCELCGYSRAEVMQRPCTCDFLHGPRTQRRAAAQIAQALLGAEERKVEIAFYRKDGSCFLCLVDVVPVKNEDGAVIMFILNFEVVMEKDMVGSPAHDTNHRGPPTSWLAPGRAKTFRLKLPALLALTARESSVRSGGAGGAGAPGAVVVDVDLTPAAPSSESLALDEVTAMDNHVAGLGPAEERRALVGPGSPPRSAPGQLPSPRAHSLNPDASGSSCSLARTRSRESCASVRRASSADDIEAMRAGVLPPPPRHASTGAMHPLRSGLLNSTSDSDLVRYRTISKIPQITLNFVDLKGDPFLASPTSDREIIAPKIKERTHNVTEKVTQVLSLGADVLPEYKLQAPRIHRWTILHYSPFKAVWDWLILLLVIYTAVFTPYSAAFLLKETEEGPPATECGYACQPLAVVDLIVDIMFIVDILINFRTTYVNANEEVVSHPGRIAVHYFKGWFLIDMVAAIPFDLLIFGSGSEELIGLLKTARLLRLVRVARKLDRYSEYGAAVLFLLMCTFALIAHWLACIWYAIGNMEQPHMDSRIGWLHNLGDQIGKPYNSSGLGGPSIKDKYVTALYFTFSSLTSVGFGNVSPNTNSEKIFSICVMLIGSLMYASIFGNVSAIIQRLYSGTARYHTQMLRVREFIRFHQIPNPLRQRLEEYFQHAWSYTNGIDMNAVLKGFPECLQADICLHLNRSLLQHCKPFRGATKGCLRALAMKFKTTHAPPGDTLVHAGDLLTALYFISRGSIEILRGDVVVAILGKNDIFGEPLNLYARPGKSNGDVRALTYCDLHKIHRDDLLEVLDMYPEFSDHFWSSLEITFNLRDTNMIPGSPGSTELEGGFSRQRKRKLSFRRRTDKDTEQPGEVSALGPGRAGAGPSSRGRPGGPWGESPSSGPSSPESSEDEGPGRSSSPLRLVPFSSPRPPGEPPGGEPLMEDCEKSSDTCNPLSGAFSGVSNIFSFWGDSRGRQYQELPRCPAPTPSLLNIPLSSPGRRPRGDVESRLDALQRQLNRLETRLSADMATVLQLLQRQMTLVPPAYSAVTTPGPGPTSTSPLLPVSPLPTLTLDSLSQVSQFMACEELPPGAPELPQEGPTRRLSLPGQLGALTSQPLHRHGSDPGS
T2 sequence (P49336 whole entry): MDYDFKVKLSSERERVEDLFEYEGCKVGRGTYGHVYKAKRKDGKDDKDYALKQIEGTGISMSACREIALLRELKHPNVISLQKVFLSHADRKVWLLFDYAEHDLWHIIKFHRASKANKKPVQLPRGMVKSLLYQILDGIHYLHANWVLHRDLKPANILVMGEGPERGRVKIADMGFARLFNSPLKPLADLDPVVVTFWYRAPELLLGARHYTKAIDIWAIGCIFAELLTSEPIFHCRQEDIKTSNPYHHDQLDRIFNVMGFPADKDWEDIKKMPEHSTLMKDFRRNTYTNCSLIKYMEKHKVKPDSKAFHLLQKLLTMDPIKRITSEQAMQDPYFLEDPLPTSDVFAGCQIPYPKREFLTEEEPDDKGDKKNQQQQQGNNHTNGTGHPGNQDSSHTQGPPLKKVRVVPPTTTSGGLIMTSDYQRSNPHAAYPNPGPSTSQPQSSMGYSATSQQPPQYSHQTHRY
T2 sequence (P24863 whole entry partner): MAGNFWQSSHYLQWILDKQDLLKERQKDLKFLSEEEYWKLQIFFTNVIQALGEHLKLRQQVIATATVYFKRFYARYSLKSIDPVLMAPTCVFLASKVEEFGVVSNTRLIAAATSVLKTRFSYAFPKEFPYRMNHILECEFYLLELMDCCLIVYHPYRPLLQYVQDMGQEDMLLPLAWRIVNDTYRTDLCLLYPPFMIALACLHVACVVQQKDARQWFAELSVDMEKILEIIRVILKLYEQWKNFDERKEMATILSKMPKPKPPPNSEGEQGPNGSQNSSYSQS
T1 sequence (P49336 whole entry): as the sequence (P49336 whole entry) above
T1 sequence (P24863 whole entry partner): as the sequence (P24863 whole entry partner) above

| Compound | inhibition at 1 µM [1] | IC50 [2, 10] | IC50 [2, 11] | inhibition of CDK8 in Western blot [3] | GI50 [4] | GI50 [5] | ratio of red (CDK8 W105M) to green (wild type) fluorescent cells [6] | Fold increase in leukemia burden 15 days after 1st dose ([7]; 20 mpk PO Q5Dx2) | in vivo anti-leukemic efficacy (bioluminescence, words) [7] | Efficacy Rank Day 15 [7] | % inhibition, Panlab sodium channel assay [8] | Fold increase in leukemia burden 15 days after 1st dose ([7]; 10 mpk PO 7 on/2off/6on) | inhibition at 10 µM [9] | Fold increase in leukemia burden 15 days after 1st dose ([7]; 5 mpk PO 7on/4off/4on) | Fold increase in leukemia burden 15 days after 1st dose ([7]; 3 mpk IV 7on/2off/4on then IP 2on) |
| --- | --- | --- | --- | --- | --- | --- | --- | --- | --- | --- | --- | --- | --- | --- | --- |
| C[C@]12CC=C3C=C4CC[C@@H](O)C[C@]45CC[C@]3(O5)[C@@H]1CC[C@@H]2c1ccc2ccncc2c1 [Compound A, (3S,3aR,9R,10aR,12aS,12bR)-3-(isoquinolin-7-yl)-3a-methyl-1,2,3,3a,4,7,8,9,10,11,12,12b-dodecahydro-10a,12a-epoxybenzo[4,5]cyclohepta[1,2-e]inden-9-ol] | > 50% | 9.9 nM | 10.6 nM and 9.3 nM | dose dependent response | 1.5 nM | > 1000 nM | dose-dependently shifted the ratio of red to green cells | 10.4 fold | similarly efficacious to Compound F | 5 | – | – | – | – | – |
| C[C@]12CC=C3C=C4CC[C@@H](N5CC[C@@H](N)C5)C[C@]45CC[C@]3(O5)[C@@H]1CC[C@@H]2c1ccc2ccncc2c1 [Compound B] | > 50% | 9.1 nM | 5.5 nM and 12.7 nM | dose dependent response | 4 nM | > 1000 nM | dose-dependently shifted the ratio of red to green cells | – | superior in vivo efficacy as compared to Compound F | 3 | 65% | 5.2 fold | 34% | – | – |
| C[C@]12CC=C3C=C4CC[C@@H](N5CC(N)C5)C[C@]45CC[C@]3(O5)[C@@H]1CC[C@@H]2c1ccc2ccncc2c1 [Compound C] | > 50% | 9.5 nM | 8.9 nM and 10.2 nM | dose dependent response | 2 nM | > 1000 nM | dose-dependently shifted the ratio of red to green cells | – | superior in vivo efficacy as compared to Compound F | 2 | 66% | – | 49% | 2.2 fold | – |
| C[C@]12CC=C3C=C4CC[C@@H](N5C[C@H](O)[C@@H](O)C5)C[C@]45CC[C@]3(O5)[C@@H]1CC[C@@H]2c1ccc2ccncc2c1 [Compound D] | > 50% | 6.4 nM | 6.4 nM and 6.5 nM | dose dependent response | 1.5 nM | > 1000 nM | dose-dependently shifted the ratio of red to green cells | – | superior in vivo efficacy as compared to Compound F | 1 | 65% | – | 20% | – | 1.1 fold |

From US20180298024A1, “CORTISTATIN ANALOGS AND USES THEREOF” (President and Fellows of Harvard College, priority 2015, published 2018)
